Molecules are shown by their SMILES.

For the test, the target named is M. tuberculosis GpgS (glucosyl-3-phosphoglycerate synthase) (Mycobacterium tuberculosis, UniProt P9WMW9).
Sequence of M. tuberculosis GpgS (glucosyl-3-phosphoglycerate synthase) (P9WMW9 whole entry): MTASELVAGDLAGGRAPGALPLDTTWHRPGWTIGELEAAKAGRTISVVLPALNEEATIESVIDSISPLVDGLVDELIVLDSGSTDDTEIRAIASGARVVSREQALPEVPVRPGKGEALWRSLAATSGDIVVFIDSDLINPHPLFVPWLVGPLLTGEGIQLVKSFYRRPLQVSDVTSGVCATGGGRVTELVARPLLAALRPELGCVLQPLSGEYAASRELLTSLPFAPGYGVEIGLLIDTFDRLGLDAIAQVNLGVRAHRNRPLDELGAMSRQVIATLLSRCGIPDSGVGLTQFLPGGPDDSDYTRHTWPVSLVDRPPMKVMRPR

Consider `O=C(O)[C@H](O)COP(=O)(O)O` [3-phosphoglycerate], for which the “X-ray crystal structure of ternary complex, 2.7 A (co-crystallization)” value is given as “there is clear electron density for the carboxylate region of the bound 3-phosphoglycerate”.
